The text below walks through data of patent US5990170A, “Therapeutic use of mono and bicarboxylic acid amides active at the peripheral cannabinoid receptor” (Lifegroup S.p.A., priority 1994, dated 1999).

Each structure is given as a SMILES string. “Also recorded” adds a separate entry of the source. Read-outs that look alike come from different tables or passages of the source. Where only a bound is given, the exact number is not on record here.

Series [1] has as its system RBL-2H3 cells. In words: Inhibition of 3H-serotonin release induced by ADNP/DNP-HSA immunogenic stimulation in RBL-2H3 cells. It counts as cell-based, rat. The following applies: for inhibition at 100 µM: 100 μM (Table 8); for inhibition at 10 µM: RBL-2H3, 10 μM, 1% DMSO and 0.1% ethanol (Table 4); for inhibition at 12.5 µM: RBL-2H3, read-out: 3H-serotonin net release inhibition (%), 12.5 μM; for 3H-serotonin net release inhibition (%): + anandamide (12.5 μM) (Table 4).

A short description of series [2]: physchem. As to conditions: chloroform, organic solvent or mixture.
Series [3] addresses T1, CB2 receptor (RBL-2H3 cell membranes) (Rattus norvegicus, UniProt Q9QZN9).
T1 construct: Preparation of Plasmatic Membranes of RBL-2H3 Cells; endogenous in cells; host or cells: RBL-2H3 (rat basophilic leukemia) cell membranes
T1 sequence (Q9QZN9 1-360): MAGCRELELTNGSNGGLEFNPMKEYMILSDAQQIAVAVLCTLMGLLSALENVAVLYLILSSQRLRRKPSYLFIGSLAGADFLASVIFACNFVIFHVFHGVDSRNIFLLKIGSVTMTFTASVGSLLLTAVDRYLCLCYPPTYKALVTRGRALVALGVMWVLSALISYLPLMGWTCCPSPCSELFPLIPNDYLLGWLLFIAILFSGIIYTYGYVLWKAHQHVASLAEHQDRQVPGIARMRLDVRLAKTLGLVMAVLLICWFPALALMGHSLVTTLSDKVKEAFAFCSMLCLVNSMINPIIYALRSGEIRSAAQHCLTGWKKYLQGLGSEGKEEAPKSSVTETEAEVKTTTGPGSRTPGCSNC
Description: Competitive displacement of 3H-WIN 55,212-2 binding to RBL-2H3 cell membranes. As to conditions: for inhibition at 10 µM: read-out: % Displacement. On the procedure: (§1) RBL-2H3 cells (100×10^6), frozen at -80° C., were thawed with 4 ml of Tris-HCl buffer solution 50 mM (pH 7.4), added with 0.25% w/v of Tripsin inhibitor, TYPE II-S: SOY BEAN® (distributed by Sigma). The cells were resuspended in the buffer and homogenized. The homogenate was centrifuged at 1500×g at 4° C. for 10 min. The supernatant obtained was collected and the precipitate was resuspended in 4 ml of the previous buffer. The resuspended precipitate was homogenized and centrifuged again at 1500×g at 4° C. for 5-10 min. The resulting supernatant was combined to the supernatant previously obtained and centrifuged at 5000×g for 10 min. After centrifugation, the supernatant was collected and further centrifuged at 40,000×g at 4° C. for 30 min. The resulting precipitate was resuspended in 0.5 ml of the buffer solution described above, with addition of 1% Bovine Serum Albumin fatty acid free. The obtained suspension was centrifuged at 40,000×g at 4° C. for 30 min. The resulting precipitate was collected and resuspended in buffer solution containing 50 mM Tris HCl, 1 mM Tris-EDTA, 3 mM MgCl2, pH 7.4, in order to obtain a proteic concentration of 1 μg/μl approx. This preparation may be used fresh, or frozen at -80° C. and utilized within few days.
Non-radioactive WIN 55,212-2 (1 μM) was used to inhibit specific binding. […] The competitors were added to the binding mixture prior to the labelled ligand. In both cases, for an evaluation of the reference specific binding, ethanol and DMSO were added at the same final concentration to the total binding and to the aspecific one, also in the absence of competitors.
WIN 55,212-2 was used at a concentration of 3 μM, whereas the other compounds were used at a concentration of 10 μM.
Incubation was carried out in the presence of 1% DMSO. The values of Inhibitory Concentration 50 (IC50) are expressed as means ± SEM, after the number of experiments reported hereinbelow.
(In a radioligand displacement assay an active substance lowers the binding of a labelled ligand.)

Series [4] addresses T1, CB2 receptor (RBL-2H3 cell membranes). Described as above. The following applies: competitor 10 μM.
Series [5] concerns CB1 central receptor. The following applies: result in words; Devane et al., 1992; cited from earlier work.
Series [6] can be described thus: Solubility in water and organic solvents.
Series [7] deals with CB1 central receptor. As to conditions: result in words; cited from earlier work.
In series [8] the test system is activated macrophages. The following applies: result in words; Fischer-Stenger et al., 1993; cited from earlier work.
For series [9], the target named is T1, CB2 receptor (RBL-2H3 cell membranes). Description: Saturation curve of labelled receptor agonist 3H-WIN 55,212-2 on RBL-2H3 cell membranes. Format: binding. As to conditions: 0.5 to 20 nM 3H-WIN 55,212-2; 30 μg membrane proteins; 30° C., 60 min. How it is done: as §1
[10] abbreviates: Rattus norvegicus, RBL-2H3, read-out: 3H-serotonin release inhibition %, 1% DMSO.
Where [11] appears, read: read-out: ED50, inhibition of 3H-serotonin release, + anandamide (12.5 μM) (Table 5), 15 min.
Where [12] appears, read: Rattus norvegicus, RBL-2H3, 0.25 h, 0.1% DMSO and 0.1% ethanol (Table 3), read-out: ED50 (the source's name).
Setting [13] is: Rattus norvegicus, RBL-2H3, read-out: 3H-serotonin net release inhibition (%).
Where [14] appears, read: dmso, organic solvent or mixture.
The mark [15] stands for this setting: ethanol, organic solvent or mixture.

As a reminder, the solubility is the dissolved amount per volume that the medium holds. With `CCCCCCCCCCCCCCCCCC(=O)NCCO` [Example 23, N-(2-hydroxyethyl)-stearoylamide], in series [1] (Rattus norvegicus, RBL-2H3, read-out: 3H-serotonin release inhibition %, 0.2% DMSO, 60 μM (Table 8)), the inhibition at 60 µM is 60%. Further, the inhibition at 100 µM in series [1] (setting [10]) amounted to 91%. The EC50 in series [1] (Rattus norvegicus, RBL-2H3, read-out: EC50, concentration inhibiting by 50% the net release of 3H serotonin, 1% DMSO, 15 minutes release period (Table 9)) was 11 µM. The IC50 was 10.1 µM in series [1] (setting [11]) and 2.4 µM in series [1] (read-out: ED50, inhibition of 3H-serotonin release, - anandamide (Table 5), 15 min). The solubility in series [2] is more than 5000 µg/mL.
Take `CCCCCCCCCCCCCCCC(=O)NCCO` [Example 25, N-palmitoylethanolamide]: the IC50 was determined as 1 ± 0.55 nM in [3]; 2.6 µM in [1] (Rattus norvegicus, RBL-2H3, 0.25 h, 1% DMSO and 0.1% ethanol (Table 3), read-out: ED50 (the source's name)). The inhibition at 10 µM in series [3] was found to be 23%; in [1] (Rattus norvegicus, + anandamide (12.5 μM), read-out: 3H-serotonin net release inhibition (%)) it was 0%; in [1] (Rattus norvegicus, - anandamide, read-out: 3H-serotonin net release inhibition (%)) it was 100%. Further, the activity at 10 µM in series [1] (Rattus norvegicus, RBL-2H3, 0.25 h, 10 μM (minimum effective concentration), 1% DMSO and 0.1% ethanol (Table 3), read-out: 3H-serotonin net release (%)) came out at 0%. For the same molecule, the “functional effect following receptor activation (serotonin release)” value in [1] (result in words) was “can inhibit the effects induced by mast cell activation and exert an effect that is higher than or comparable to the one of cannabinoids”; in [1] (result in words, listed as palmitoylethanolamide), “capable of functionally activating the peripheral receptor”. This molecule had a Specific binding in [4] (0.1% DMSO) of 1103. Further, the “binding to the central receptor” value in [5] is on record as “not able to bind to the central receptor”. For the same molecule, the “solubility in organic solvents” value in series [6] (result in words) is recorded as “in hot MetOH, CHCl3, DMSO”. In addition, in series [6] (result in words), the solubility in water result is “insoluble”.
As to `CCCCC/C=C\C/C=C\C/C=C\C/C=C\CCCC(=O)NCCO` [anandamide, arachidonylethanolamide, reference compound], the inhibition at 10 µM in series [3] is 95%. Besides, the “binding to the peripheral receptor” value in series [3] (result in words) is “able to bind to the receptor and to compete; also recorded: having binding affinity for the peripheral receptor”. For the same molecule, the inhibition at 12.5 µM in series [1] (Rattus norvegicus, + WIN 55,212-2 (30 μm) (Table 6)) came out at 15%. For the same molecule, the inhibition at 12.5 µM in [1] (Rattus norvegicus, - WIN (Table 6)) stood at 7%. For the same molecule, the “3H-serotonin net release (%)” value in series [1] (concentration not given, 0.1% DMSO and 0.1% ethanol (Table 3), 15 min) came out at 100%. Besides, in [1] (result in words), the “antagonism of the protective effects of cannabinoids” value was “competitive antagonism on the peripheral receptor” and the “functional effect following receptor activation (serotonin release)” value is recorded as “unable to affect serotonin release; also recorded: is not able to induce biological effects”. In series [4] (0.1% ethanol), this molecule showed a Specific binding of 99. The “functional activation of CB1 central receptor” value in [7] is recorded as “can functionally activate CB1 central receptor”.
Regarding `CCCCCc1cc(O)c2c(c1)OC(C)(C)[C@@H]1CCC(C)=C[C@@H]21` [Δ9-THC, Δ9-tetrahydrocannabinol, reference compound], the activity at 25 µM in [1] (Rattus norvegicus, RBL-2H3, 0.25 h, read-out: 3H-serotonin net release (%)) is 27%. Also, the IC50 in series [1] (Rattus norvegicus, RBL-2H3, 0.25 h, read-out: ED50) was determined as 5 µM. For the same molecule, the inhibition at 25 µM in [1] (Rattus norvegicus, RBL-2H3, read-out: 3H-serotonin net release inhibition (%), 25 μM, - anandamide (Table 4)) was determined as 73%. For the same molecule, the “functional effect following receptor activation (serotonin release)” value in series [1] (result in words) is recorded as “able to inhibit, in a concentration-dependent way, RBL cells immunogenic activation”. In addition, the “effect on cytolytic activity of activated macrophages” value in [8] is reported as “decreases the cytolytic activity of activated macrophages”.
As to `CCCCCCCCCCCCCCCC(=O)N[C@@H](CO)c1ccccc1` [Example 1, N-palmitoyl-[(R)-2-amino-2-phenylethanol]], the IC50 in [3] amounted to 0.4 nM; in [1] (setting [12]) it was 0.6 µM; in series [1] (setting [11]) it was 4 µM. For the same molecule, the inhibition at 10 µM in [3] worked out at 77%. In series [1] (3 μM), the “3H-serotonin net release inhibition (%)” value is on record as 39%. The activity at 3 µM in [1] (Rattus norvegicus, RBL-2H3, 0.25 h, 3 μM, 0.1% DMSO and 0.1% ethanol (Table 3), read-out: 3H-serotonin net release (%)) was 0%. Also, the inhibition at 3 µM in series [1] (setting [13]) was determined as 100%. For the same molecule, the “effect of anandamide co-incubation on the ability to inhibit serotonin release” value in series [1] (co-incubation with anandamide, in words) is given as “reduces the ability”. Besides, in [1] (result in words), the “functional effect following receptor activation (serotonin release)” value is “can inhibit the effects induced by mast cell activation and exert an effect that is higher than or comparable to the one of cannabinoids”. For the same molecule, in series [4] (0.1% DMSO), the Specific binding is reported as 325. The solubility in [6] (setting [14]) and in [6] (setting [15]) was more than 10000 µg/mL each time. Further, the solubility in water entry in series [6] (result in words) is on record as “scarcely soluble”.
In series [9], `Cc1c(C(=O)c2cccc3ccccc23)c2cccc3c2n1C(CN1CCOCC1)CO3` (stereo not shown) [3H-WIN 55,212-2] yielded a Bmax of 100 to 250 pM.
`CCCCCCCCCCCCCCCC(=O)NCCOP(=O)(O)O` [Example 27, N-palmitoylethanolamide phosphate]: the figures for the IC50 in [3], in series [1] (setting [12]) and in [1] (setting [11]) were 7.6 nM, 3.8 µM and 9.5 µM, respectively. Besides, the inhibition at 10 µM in series [3] was found to be 42%. In series [1] (7.5 μM), the “3H-serotonin net release inhibition (%)” value amounted to 46%. The activity at 7.5 µM in [1] (Rattus norvegicus, RBL-2H3, 0.25 h, 7.5 μM, 0.1% DMSO and 0.1% ethanol (Table 3), read-out: 3H-serotonin net release (%)) came to 0%. In addition, the inhibition at 7.5 µM in series [1] (setting [13]) worked out at 100%. Besides, in series [1] (result in words), the “functional effect following receptor activation (serotonin release)” value is “can inhibit the effects induced by mast cell activation and exert an effect that is higher than or comparable to the one of cannabinoids”. Further, the Specific binding in series [4] (0.1% DMSO) came to 843. The solubility was more than 10000 µg/mL in series [6] (setting [14]) and more than 1000 µg/mL in series [6] (phosphate buffer, pH 7.4, aqueous buffer). For the same molecule, the solubility in water entry in series [6] (result in words) is given as “scarcely soluble”.
Consider `O=C(/C=C/CCCCCCCCC(=O)NCCO)NCCO` [Example 26, N,N'-bis(2-hydroxyethyl)-trans-2-dodecenediamide], for which the inhibition at 10 µM in series [3] was found to be 72%. For the same molecule, the “3H-serotonin net release inhibition (%)” value in [1] (50 μM) is listed as 48%. Besides, the activity at 50 µM in series [1] (Rattus norvegicus, RBL-2H3, 0.25 h, 50 μM, 0.1% DMSO and 0.1% ethanol (Table 3), read-out: 3H-serotonin net release (%)) is 21%. Also, the IC50 in series [1] (setting [12]) was found to be 28 µM; in series [1] (setting [11]), 50 µM. The inhibition at 100 µM in [1] (Rattus norvegicus, RBL-2H3, read-out: 3H-serotonin release inhibition %, 0.2% DMSO) was more than 95%; in series [1] (setting [10]) it was more than 95%. Moreover, the inhibition at 50 µM in series [1] (setting [13]) was found to be 79%. Besides, in series [4] (0.1% DMSO), the Specific binding was 402. The solubility in [6] (setting [14]), in [6] (setting [15]) and in [6] (water) was more than 10000 µg/mL throughout.
